Assay results from paper PMC9966181, “Polyphenols with Anti-Inflammatory Properties: Synthesis and Biological Activity of Novel Curcumin Derivatives” (International Journal of Molecular Sciences, 2023).

Assays:
Assay type in all cases: cell-based, C57BL/6 mice
IL-6 production = assay: Inhibition of IL-6 production in LPS-stimulated peritoneal macrophages (ELISA); settings: for IC50: peritoneal macrophages, compounds 1 h before 10 ng/mL LPS, supernatant after 6 h, average of three independent experiments in duplicate ± S.D.; for Relative activity on IL-6 production (SAR ranking): ranking in discussion; for Dose-dependent inhibition of IL-6 production: 1, 3, 10, 30 μM, 10 ng/mL LPS; for Dose-dependent inhibition of IL-6 production / Effect on production of IL-6 at single concentration: 6 h; for Effect on production of IL-6 at single concentration: 30 μM, 1 h before 10 ng/mL LPS
Experimental: (§1) Peritoneal macrophages were obtained four days after i.p. instillation of 2 mL of thioglycollate 3%, by peritoneal washing with chilled RPMI. Cells were seeded in RPMI with 10% FCS at 2 × 10^5/well in 96-well plates and cultured for 2 h at 37 °C in an atmosphere of 5% CO2. Cells were treated with compounds 1–15 (30 μM) 1 h before the stimulus with 10 ng/mL of LPS. For dose response experiments, cells were pre-treated with different concentrations (1, 3, 10, 30 μM) of compounds 1, 2, 4, 5, 6, 8, 10, 13, and 15 before the stimulation with 10 ng/mL of LPS. All the treatments and controls were performed in the presence of 0.5% of DMSO, as compounds are solubilized in this solvent. Supernatants were collected 6h after the stimulus with LPS.
(§2) Peritoneal macrophages were cultured as previously described. The concentrations of IL-6 were determined by ELISA (DuoSet kit, R&D System) according to the manufacturer’s protocol. The concentration of prostaglandin E2 (PGE2) was determined using the “Prostaglandin E2 ELISA Kit - Monoclonal” from Cayman CHEMICAL, according to the manufacturer’s protocol.
(§3) Results were analyzed using the statistical software package GraphPad Prism 5. Data are presented as means ± S.E.M. Statistical analysis was performed by Student’s t-test. A significant difference between groups was considered when p < 0.05. The half maximal inhibitory concentration (IC50) was calculated by adjusting a sigmoidal dose–response curve following GraphPad Prism5 procedure.

PGE2 production = assay: Inhibition of PGE2 production in LPS-stimulated peritoneal macrophages (ELISA); settings: for IC50: peritoneal macrophages, compounds 1 h before 10 ng/mL LPS, supernatant after 6 h, average of three independent experiments in duplicate ± S.D.; for Relative activity on PGE2 production (SAR ranking): ranking among the monofunctionalized, discussion
Experimental: as §1, §2, §3

Peritoneal macrophages = assay: Cytotoxicity assay (MTT) on peritoneal macrophages; settings: 30 μM, after supernatant collection
Experimental: as §1
After the removal of supernatants, 100 µL of MTT (0.5 mg/mL) dissolved in RPMI were added to each well and cells were incubated overnight at 37 °C. The supernatants were removed and formazan crystals were dissolved in 100 µL of 0.04 M HCl in isopropanol. The color was analyzed at 570 nm using an ELISA plate reader. The percent of viable cells was calculated using the formula: % viability: [(OD sample) × 100%]/(OD control). The non-stimulated cells, cultured in medium plus 10% FCS and 0.5% DMSO, represented 100% viability.

[1] = Mus musculus, Peritoneal macrophage

Molecule | Relative activity on IL-6 production (SAR ranking) (IL-6 production) | Relative activity on PGE2 production (SAR ranking) (PGE2 production) | IC50 (IL-6 production; [1]) | IC50 (PGE2 production; [1]) | Effect on production of IL-6 at single concentration (IL-6 production) | also measured
4-((1E,4Z,6E)-5-Hydroxy-7-(4-hydroxy-3-methoxyphenyl)-3-oxohepta-1,4,6-trien-1-yl)-2-methoxyphenyl (1,2,3,4-tetrahydronaphthalen-1-yl) Succinate [Compound 15] | less active | showed activity | – | – | – | IC50 (IL-6 production): 10.4 ± 0.75 µM; Effect on PGE2 production at 3 μM (PGE2 production; 3 μM): significantly reduced PGE2 production; IC50 (PGE2 production): 3.07 ± 0.72 µM
COc1cc(/C=C/C(O)=C/C(=O)/C=C/c2ccc(OCc3ccccc3)c(OC)c2)ccc1O [Compound 2, reference compound] | – | – | 3.59 ± 0.27 µM | 0.51 ± 0.08 µM | – | Effect on IL-6 production at lowest concentration (IL-6 production; 1 μM): statistically significant inhibitory effect; Dose-dependent inhibition of IL-6 production (IL-6 production): inhibited the production of IL-6 in a dose-dependent manner; Effect on PGE2 production at 1 μM (PGE2 production; 1 μM): showed an effect; Dose-dependent inhibition of PGE2 production (PGE2 production; 1, 3, 10, 30 μM, 10 ng/mL LPS, 6 h): inhibitory effect on PGE2 production at all concentrations tested
COc1cc(/C=C/C(=O)/C=C(O)/C=C/c2ccc(OC(=O)CCC(=O)OC3C4CC5CC(C4)CC3C5)c(OC)c2)ccc1OC(=O)CCC(=O)OC1C2CC3CC(C2)CC1C3 (centres unmarked) [Compound 3, Di((1r,3r,5r,7r)-adamantan-2-yl) O,O′-(((1E,3Z,6E)-3-hydroxy-5-oxohepta-1,3,6-triene-1,7-diyl)bis(2-methoxy-4,1-phenylene)) Disuccinate] | – | – | – | – | did not show this activity | –
COc1cc(/C=C/C(O)=C/C(=O)/C=C/c2ccc(OC(=O)CCC(=O)OC3C4CC5CC(C4)CC3C5)c(OC)c2)ccc1O (centres unmarked) [Compound 4, (1r,3r,5r,7r)-Adamantan-2-yl (4-((1E,4Z,6E)-5-hydroxy-7-(4-hydroxy-3-methoxyphenyl)-3-oxohepta-1,4,6-trien-1-yl)-2-methoxyphenyl) Succinate] | less active | lowest activity | 10.5 ± 0.6 µM | 4.5 ± 3.18 µM | inhibited the production of IL-6 | –
COc1cc(/C=C/C(O)=C/C(=O)/C=C/c2ccc(OC(=O)CCC(=O)OCc3ccc4c(c3)C(=O)c3ccccc3C4=O)c(OC)c2)ccc1O [Compound 5, (9,10-Dioxo-9,10-dihydroanthracen-2-yl)methyl (4-((1E,4Z,6E)-5-hydroxy-7-(4-hydroxy-3-methoxyphenyl)-3-oxohepta-1,4,6-trien-1-yl)-2-methoxyphenyl) Succinate] | less active | showed activity | 7.11 ± 0.75 µM | 2.6 ± 1.75 µM | – | –
COc1cc(/C=C/C(O)=C/C(=O)/C=C/c2ccc(OC(=O)CCC(=O)OC(c3ccccc3)c3ccccc3)c(OC)c2)ccc1O [Compound 6, Benzhydryl (4-((1E,4Z,6E)-5-hydroxy-7-(4-hydroxy-3-methoxyphenyl)-3-oxohepta-1,4,6-trien-1-yl)-2-methoxyphenyl) Succinate] | – | showed activity | 4.21 ± 0.73 µM | 4.43 ± 0.85 µM | inhibited the production of IL-6 | –
COc1cc(/C=C/C(=O)/C=C(O)/C=C/c2ccc(OC(=O)CCC(=O)OC(c3ccccc3)C3CCCCC3)c(OC)c2)ccc1OC(=O)CCC(=O)OC(c1ccccc1)C1CCCCC1 (centres unmarked) [Compound 7, Bis(cyclohexyl(phenyl)methyl) O,O′-(((1E,3Z,6E)-3-hydroxy-5-oxohepta-1,3,6-triene-1,7-diyl)bis(2-methoxy-4,1-phenylene)) Disuccinate] | – | – | – | – | did not show this activity | –
COc1cc(/C=C/C(O)=C/C(=O)/C=C/c2ccc(OC(=O)CCC(=O)OC(c3ccccc3)C3CCCCC3)c(OC)c2)ccc1O (centres unmarked) [Compound 8, Cyclohexyl(phenyl)methyl (4-((1E,4Z,6E)-5-hydroxy-7-(4-hydroxy-3-methoxyphenyl)-3-oxohepta-1,4,6-trien-1-yl)-2-methoxyphenyl) Succinate] | – | lowest activity | 1.94 ± 0.66 µM | 5.9 ± 2.38 µM | not statistically significant | –
COc1cc(/C=C/C(=O)/C=C(O)/C=C/c2ccc(OC(=O)CCC(=O)OC3c4ccccc4-c4ccccc43)c(OC)c2)ccc1OC(=O)CCC(=O)OC1c2ccccc2-c2ccccc21 [Compound 9, Di(9H-fluoren-9-yl) O,O′-(((1E,3Z,6E)-3-hydroxy-5-oxohepta-1,3,6-triene-1,7-diyl)bis(2-methoxy-4,1-phenylene)) Disuccinate] | – | – | – | – | did not show this activity | –
COc1cc(/C=C/C(O)=C/C(=O)/C=C/c2ccc(OC(=O)CCC(=O)OC3c4ccccc4-c4ccccc43)c(OC)c2)ccc1O [Compound 10, 9H-Fluoren-9-yl (4-((1E,4Z,6E)-5-hydroxy-7-(4-hydroxy-3-methoxyphenyl)-3-oxohepta-1,4,6-trien-1-yl)-2-methoxyphenyl) Succinate] | – | lowest activity | 3.6 ± 0.21 µM | 5.93 ± 2.29 µM | inhibited the production of IL-6 | –
COc1cc(/C=C/C(O)=C/C(=O)/C=C/c2ccc(OC(=O)CCC(=O)O[C@@H]3C[C@H](C)CC[C@H]3C(C)C)c(OC)c2)ccc1OC(=O)CCC(=O)O[C@H]1C[C@@H](C)CC[C@@H]1C(C)C [Compound 12, O,O′-(((1E,3Z,6E)-3-Hydroxy-5-oxohepta-1,3,6-triene-1,7-diyl)bis(2-methoxy-4,1-phenylene)) bis((1R,2S,5R)-2-isopropyl-5-methylcyclohexyl) Disuccinate] | – | – | – | – | did not show this activity | –
COc1cc(/C=C/C(O)=C/C(=O)/C=C/c2ccc(OC(=O)CCC(=O)O[C@@H]3C[C@H](C)CC[C@H]3C(C)C)c(OC)c2)ccc1O [Compound 13, 4-((1E,4Z,6E)-5-Hydroxy-7-(4-hydroxy-3-methoxyphenyl)-3-oxohepta-1,4,6-trien-1-yl)-2-methoxyphenyl((1R,2S,5R)-2-isopropyl-5-methylcyclohexyl) Succinate] | less active | lowest activity | 10.6 ± 0.33 µM | 5.42 ± 2.04 µM | – | –
Curcumin [Compound 1, reference compound] | – | – | – | – | – | Dose-dependent inhibition of IL-6 production (IL-6 production): inhibited the production of IL-6 in a dose-dependent manner; IC50 (IL-6 production): 6.85 ± 2.5 µM; IC50 (PGE2 production): 1.34 ± 0.067 µM; Cytotoxicity / cell viability (MTT) (Peritoneal macrophages): affected cell viability
